PubChem BioAssay (NCI)
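Method: 48-hour compound exposure of cells in 96-well plates, five concentrations, linear interpolation of endpoints. Definition used: TGI = concentration required for complete inhibition of growth.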

How the values were obtained:
Experiment in all cases: NCI anticancer screen, dose series, 48 h
786-0 renal = test system: 786-0 renal
A498 renal = test system: A498 renal
A549 NSCLC = test system: A549 NSCLC
ACHN renal = test system: ACHN renal
BT-549 breast = test system: BT-549 breast
CAKI-1 renal = test system: CAKI-1 renal
CCRF-CEM leukemia = test system: CCRF-CEM leukemia
COLO 205 colon = test system: COLO 205 colon
DU-145 prostate = test system: DU-145 prostate
EKVX NSCLC = test system: EKVX NSCLC
HCT-116 colon = test system: HCT-116 colon
HCT-15 colon = test system: HCT-15 colon
HL-60(TB) leukemia = test system: HL-60(TB) leukemia
HOP-62 NSCLC = test system: HOP-62 NSCLC
HOP-92 NSCLC = test system: HOP-92 NSCLC
HS 578T breast = test system: HS 578T breast
HT29 colon = test system: HT29 colon
IGROV1 ovarian = test system: IGROV1 ovarian
K-562 leukemia = test system: K-562 leukemia
KM12 colon = test system: KM12 colon
LOX IMVI melanoma = test system: LOX IMVI melanoma
M14 melanoma = test system: M14 melanoma
MALME-3M melanoma = test system: MALME-3M melanoma
MCF7 breast = test system: MCF7 breast
MDA-MB-231 breast = test system: MDA-MB-231 breast
MDA-MB-435 = test system: MDA-MB-435
MDA-N = test system: MDA-N
MOLT-4 leukemia = test system: MOLT-4 leukemia
NCI-H226 lung = test system: NCI-H226 lung
NCI-H23 lung = test system: NCI-H23 lung
NCI-H460 lung = test system: NCI-H460 lung
NCI-H522 lung = test system: NCI-H522 lung
NCI/ADR-RES ovarian = test system: NCI/ADR-RES ovarian
OVCAR-3 ovarian = test system: OVCAR-3 ovarian
OVCAR-4 ovarian = test system: OVCAR-4 ovarian
OVCAR-5 ovarian = test system: OVCAR-5 ovarian
OVCAR-8 ovarian = test system: OVCAR-8 ovarian
PC-3 prostate = test system: PC-3 prostate
RPMI-8226 leukemia = test system: RPMI-8226 leukemia
RXF 393 renal = test system: RXF 393 renal
SF-268 CNS = test system: SF-268 CNS
SF-295 CNS = test system: SF-295 CNS
SF-539 CNS = test system: SF-539 CNS
SK-MEL-2 melanoma = test system: SK-MEL-2 melanoma
SK-MEL-28 melanoma = test system: SK-MEL-28 melanoma
SK-MEL-5 melanoma = test system: SK-MEL-5 melanoma
SK-OV-3 ovarian = test system: SK-OV-3 ovarian
SN12C renal = test system: SN12C renal
SNB-19 CNS = test system: SNB-19 CNS
SNB-75 CNS = test system: SNB-75 CNS
SR leukemia = test system: SR leukemia
SW-620 colon = test system: SW-620 colon
T-47D breast = test system: T-47D breast
TK-10 renal = test system: TK-10 renal
U251 CNS = test system: U251 CNS
UACC-257 melanoma = test system: UACC-257 melanoma
UACC-62 melanoma = test system: UACC-62 melanoma
UO-31 renal = test system: UO-31 renal

**Q.** What does the source list for `CC(C)(C)c1cc(/C=C(\C#N)C(=O)NCCO)cc(C(C)(C)C)c1O`?
**A.** TGI (786-0 renal): 48.3 µM; TGI (A498 renal): 48.4 µM; TGI (A549 NSCLC): > 100 µM; TGI (ACHN renal): 76.5 µM; TGI (BT-549 breast): 71.1 µM; TGI (CAKI-1 renal): 77.6 µM; TGI (CCRF-CEM leukemia): 46.3 µM; TGI (COLO 205 colon): 37.2 µM; TGI (DU-145 prostate): > 100 µM; TGI (EKVX NSCLC): 70.4 µM; TGI (HCT-116 colon): 32.7 µM; TGI (HCT-15 colon): 58.6 µM; TGI (HL-60(TB) leukemia): 36.9 µM; TGI (HOP-62 NSCLC): 49.6 µM; TGI (HOP-92 NSCLC): > 100 µM; TGI (HS 578T breast): > 100 µM; TGI (HT29 colon): 51.7 µM; TGI (IGROV1 ovarian): > 100 µM; TGI (K-562 leukemia): 86.7 µM; TGI (KM12 colon): 52.7 µM; TGI (LOX IMVI melanoma): 53.9 µM; TGI (M14 melanoma): 31.8 µM; TGI (MALME-3M melanoma): 61.9 µM; TGI (MCF7 breast): 93.5 µM; TGI (MDA-MB-231 breast): 43.9 µM; TGI (MDA-MB-435): 45 µM; TGI (MDA-N): 48.7 µM; TGI (MOLT-4 leukemia): 59.1 µM; TGI (NCI-H226 lung): 40.7 µM; TGI (NCI-H23 lung): 89.7 µM; TGI (NCI-H460 lung): 43.5 µM; TGI (NCI-H522 lung): 37 µM; TGI (NCI/ADR-RES ovarian): 75.3 µM; TGI (OVCAR-3 ovarian): 33.5 µM; TGI (OVCAR-4 ovarian): 76.5 µM; TGI (OVCAR-5 ovarian): 62.8 µM; TGI (OVCAR-8 ovarian): > 100 µM; TGI (PC-3 prostate): 46.7 µM; TGI (RPMI-8226 leukemia): 35.6 µM; TGI (RXF 393 renal): 57.6 µM; TGI (SF-268 CNS): > 100 µM; TGI (SF-295 CNS): 40.8 µM; TGI (SF-539 CNS): 38.3 µM; TGI (SK-MEL-2 melanoma): 37.4 µM; TGI (SK-MEL-28 melanoma): 47.1 µM; TGI (SK-MEL-5 melanoma): 28.1 µM; TGI (SK-OV-3 ovarian): 60.2 µM; TGI (SN12C renal): 51.6 µM; TGI (SNB-19 CNS): > 100 µM; TGI (SNB-75 CNS): 72.4 µM; TGI (SR leukemia): 49.4 µM; TGI (SW-620 colon): 97 µM; TGI (T-47D breast): 76.8 µM; TGI (TK-10 renal): 60.9 µM; TGI (U251 CNS): 39.9 µM; TGI (UACC-257 melanoma): 35 µM; TGI (UACC-62 melanoma): 27.5 µM; TGI (UO-31 renal): 49.7 µM

**Q.** Which results are given for `COC1/C=C\C=C(/C)C(=O)NC2=CC(=O)C(=O)C(=C2O)CC(C)CC(OC)C(O)C(C)/C=C(\C)C1OC(N)=O` (stereo not given)?
**A.** TGI (786-0 renal): 24.3 µM; TGI (A498 renal): > 100 µM; TGI (A549 NSCLC): > 100 µM; TGI (ACHN renal): > 82.1 µM; TGI (BT-549 breast): > 100 µM; TGI (CAKI-1 renal): > 42 µM; TGI (CCRF-CEM leukemia): 25.8 µM; TGI (COLO 205 colon): 13.3 µM; TGI (DU-145 prostate): 35.5 µM; TGI (EKVX NSCLC): 32.7 µM; TGI (HCT-116 colon): 14.4 µM; TGI (HCT-15 colon): > 100 µM; TGI (HL-60(TB) leukemia): > 35.5 µM; TGI (HOP-62 NSCLC): > 74.1 µM; TGI (HOP-92 NSCLC): 21 µM; TGI (HS 578T breast): > 100 µM; TGI (HT29 colon): 17.8 µM; TGI (IGROV1 ovarian): > 100 µM; TGI (K-562 leukemia): > 100 µM; TGI (KM12 colon): 5.57 µM; TGI (LOX IMVI melanoma): 13.9 µM; TGI (M14 melanoma): > 53.2 µM; TGI (MALME-3M melanoma): 21.7 µM; TGI (MCF7 breast): > 42.4 µM; TGI (MDA-MB-231 breast): 4.22 µM; TGI (MDA-MB-435): 11.8 µM; TGI (MDA-N): 12.2 µM; TGI (MOLT-4 leukemia): > 52.3 µM; TGI (NCI-H226 lung): > 100 µM; TGI (NCI-H23 lung): > 100 µM; TGI (NCI-H460 lung): > 100 µM; TGI (NCI-H522 lung): 18.3 µM; TGI (NCI/ADR-RES ovarian): > 100 µM; TGI (OVCAR-3 ovarian): 19.7 µM; TGI (OVCAR-4 ovarian): 22.1 µM; TGI (OVCAR-5 ovarian): > 100 µM; TGI (OVCAR-8 ovarian): > 52.4 µM; TGI (PC-3 prostate): > 37.7 µM; TGI (RPMI-8226 leukemia): 33.5 µM; TGI (RXF 393 renal): 27.5 µM; TGI (SF-268 CNS): > 58.9 µM; TGI (SF-295 CNS): > 100 µM; TGI (SF-539 CNS): 22.5 µM; TGI (SK-MEL-2 melanoma): > 60.5 µM; TGI (SK-MEL-28 melanoma): > 49.3 µM; TGI (SK-MEL-5 melanoma): 43.7 µM; TGI (SK-OV-3 ovarian): > 100 µM; TGI (SN12C renal): 3.22 µM; TGI (SNB-19 CNS): > 100 µM; TGI (SR leukemia): 25 µM; TGI (SW-620 colon): 18.3 µM; TGI (T-47D breast): 70.9 µM; TGI (TK-10 renal): > 57.5 µM; TGI (U251 CNS): > 40.3 µM; TGI (UACC-257 melanoma): > 36.3 µM; TGI (UACC-62 melanoma): > 32.6 µM; TGI (UO-31 renal): 39.8 µM
